Assay results reported in article PMC9756503, “Pharmacodynamic properties for inhibition of cAMP- and cGMP elimination by pentoxifylline remain unaltered in vitro during hypothermia” (Scandinavian Journal of Trauma, Resuscitation and Emergency …, 2022).
Where two headings read alike, the source gives them in different places.

Columns and labels:
Recombinant human PDE3 = assay: Inhibition of PDE3-mediated enzymatic breakdown of cAMP; format: biochemical; details: for Ki: Cheng-Prusoff; for [PDE3-inhibition]/[PDE5-inhibition] / [PDE3-inhibition]/[cAMP-efflux inhibition]: ratio between IC50-values
Method: (§1) Assessment of pentoxifyllines ability to inhibit the phosphodiesterase enzymes were performed by incubating cAMP or cGMP with seven different concentrations of pentoxifylline. The concentrations were increasing by a factor of 10 ranging from 1.00 nM to 1.00 mM. For PDE3 assessment, the incubation solution included cAMP and for PDE5 assessment it included cGMP. Experiments were performed in triplicates each day at three separate days - in total 9 parallels. The reaction was started by adding either a solution containing 0.016 units/µg protein of PDE3 (Abcam, Cambridge UK), or 0.022 units/µg protein of PDE5 (Sigma-Aldrich, St. Louis, USA), to the Eppendorf tubes. Control samples were free of drug and was either with or without PDE3 or PDE5. This was done to assure that only the relevant PDE was responsible for breakdown of the cyclic nucleotide, as no other enzyme nor cellular material was added to the incubations. The incubation time was 30 min. Reaction was stopped by adding methanol to the tubes. Internal standard of cGMP/GMP or cAMP/AMP (Sigma-Aldrich, St. Louis, MO, USA, Germany and Toronto Research Chemicals Inc., Ontario, Canada) were added to each sample. 5 samples contained only known concentrations of cGMP/GMP or cAMP/AMP and served as calibrators. Samples were analyzed for cGMP/GMP and cAMP/AMP content, using MS [14, 15].
Quantification of cAMP/AMP, cGMP/GMP and pentoxifylline in PDE- and intracellular access experiments were performed with liquid chromatography tandem mass spectrometry (LC–MS/MS). Preparation of samples for LC–MS/MS-analysis is described in paragraphs above.
(§2) Analysis and graph production were performed in SigmaPlot 14.0 (Systat Software, San Jose, CA, USA.). Ability to inhibit the different elimination pathways, enzymes and efflux pumps, were calculated as IC50-values, as according to Chou. Ki-values were obtained by using the methods described by Cheng and Prustoff. Measurement of intracellular concentrations of drugs were adjusted for protein concentrations in each sample. The incubation concentrations were also adjusted for protein concentration in each sample to evaluate the access in percentage. […] The same analysis was performed for intracellular concentrations of pentoxifylline during hypothermia compared to baseline (37 °C). When data was not normally distributed ANOVA on ranks and Dunn`s post hoc test was performed. Data are presented as mean ± standard error of the mean (SEM). p-values were considered significant when < 0.05.

Recombinant human PDE5 = biological target: T1, Recombinant human PDE5 (Homo sapiens, UniProt O76074); assay: Inhibition of PDE5-mediated enzymatic breakdown of cGMP; format: biochemical; details: for Ki: Cheng-Prusoff; for [PDE5-inhibition]/[cGMP-efflux inhibition]: ratio between IC50-values
T1 construct: purchased Sigma-Aldrich
Method: as §1
Quantification of cAMP/AMP, cGMP/GMP and pentoxifylline in PDE- and intracellular access experiments were performed with liquid chromatography tandem mass spectrometry (LC–MS/MS). Preparation of samples for LC–MS/MS-analysis is described in paragraphs above. […] For GMP the method was linear from 2 nM to at least 2000 nM (r^2 > 0.998), and 10 nM to at least 5000 nM for pentoxifylline (r^2 > 0.998).
Analysis and graph production were performed in SigmaPlot 14.0 (Systat Software, San Jose, CA, USA.). Ability to inhibit the different elimination pathways, enzymes and efflux pumps, were calculated as IC50-values, as according to Chou. Ki-values were obtained by using the methods described by Cheng and Prustoff. Measurement of intracellular concentrations of drugs were adjusted for protein concentrations in each sample. The incubation concentrations were also adjusted for protein concentration in each sample to evaluate the access in percentage. Analysis of variance (ANOVA) with Holm-Sidak multiple comparison post-hoc test was performed to evaluate changes in IC50-values compared to baseline (37 °C) for all elimination pathways. The same analysis was performed for intracellular concentrations of pentoxifylline during hypothermia compared to baseline (37 °C). When data was not normally distributed ANOVA on ranks and Dunn`s post hoc test was performed. Data are presented as mean ± standard error of the mean (SEM). p-values were considered significant when < 0.05.

ABCC4 = biological target: T2, ABCC4 (Homo sapiens, UniProt O15439); assay: biochemical; format: biochemical; details: for Ki: Cheng-Prusoff, read-out: Ki for inhibition of cAMP-efflux; for [cAMP-efflux inhibition]/[cGMP-efflux inhibition]: ratio between IC50-values; for IC50: read-out: IC50 for inhibition of cAMP-efflux
T2 construct: inside-out vesicles (IOV)s where erythrocytes from healthy, human donors were sampled; endogenous in cells; host or cells: inside-out vesicles from erythrocytes of healthy human donors
T2 sequence (O15439 1-1325): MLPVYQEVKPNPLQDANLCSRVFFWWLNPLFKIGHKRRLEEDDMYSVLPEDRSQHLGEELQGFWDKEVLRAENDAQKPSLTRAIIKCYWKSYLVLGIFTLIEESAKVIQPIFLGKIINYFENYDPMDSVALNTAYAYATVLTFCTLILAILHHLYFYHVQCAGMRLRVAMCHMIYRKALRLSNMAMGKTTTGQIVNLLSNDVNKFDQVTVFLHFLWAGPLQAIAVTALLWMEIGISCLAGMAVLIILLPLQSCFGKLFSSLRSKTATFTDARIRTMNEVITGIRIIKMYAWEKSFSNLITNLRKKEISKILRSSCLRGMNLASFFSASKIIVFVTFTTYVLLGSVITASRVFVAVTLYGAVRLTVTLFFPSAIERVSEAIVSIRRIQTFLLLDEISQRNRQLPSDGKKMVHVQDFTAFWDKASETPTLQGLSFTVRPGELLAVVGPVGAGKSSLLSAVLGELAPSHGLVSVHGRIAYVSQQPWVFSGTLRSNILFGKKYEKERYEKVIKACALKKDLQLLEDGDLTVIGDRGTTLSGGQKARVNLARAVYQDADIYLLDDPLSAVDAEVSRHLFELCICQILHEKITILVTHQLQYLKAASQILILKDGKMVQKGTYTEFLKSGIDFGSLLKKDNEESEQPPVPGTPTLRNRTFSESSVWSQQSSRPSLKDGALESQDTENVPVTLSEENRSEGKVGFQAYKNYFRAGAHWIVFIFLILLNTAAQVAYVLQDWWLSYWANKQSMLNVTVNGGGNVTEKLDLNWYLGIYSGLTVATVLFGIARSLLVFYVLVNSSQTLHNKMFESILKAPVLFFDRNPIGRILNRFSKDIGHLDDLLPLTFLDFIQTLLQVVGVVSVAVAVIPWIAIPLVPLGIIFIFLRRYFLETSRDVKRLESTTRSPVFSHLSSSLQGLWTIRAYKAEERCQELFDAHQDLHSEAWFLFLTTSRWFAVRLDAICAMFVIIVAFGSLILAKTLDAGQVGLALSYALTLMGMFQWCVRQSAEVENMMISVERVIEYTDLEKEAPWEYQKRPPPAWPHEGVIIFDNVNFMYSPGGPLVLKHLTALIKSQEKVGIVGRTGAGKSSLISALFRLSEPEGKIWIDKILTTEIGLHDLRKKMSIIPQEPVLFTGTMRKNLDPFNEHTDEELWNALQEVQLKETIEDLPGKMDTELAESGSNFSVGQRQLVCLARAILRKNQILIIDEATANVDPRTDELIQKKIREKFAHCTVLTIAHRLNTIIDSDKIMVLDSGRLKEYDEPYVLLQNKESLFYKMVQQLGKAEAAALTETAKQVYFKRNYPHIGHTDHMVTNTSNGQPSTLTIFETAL
Method: (§3) Cellular efflux was estimated with inside-out vesicles (IOV)s where erythrocytes from healthy, human donors were sampled. Donors were pre-screened and only admitted as donors by Blodbanken UNN (Department of Immunohematology and Transfusion Medicine, University Hospital of North Norway) if they were healthy. The erythrocytes were separated from plasma by centrifugation and washed. Inside-out vesicles were prepared according to Orvoll et al. with minor modifications. Percentage IOV was verified using acetylcholinesterase accessibility test. Batches of IOVs used in the parallels were made 8 times, including blood from a total of 35 healthy donors.
(§4) IOVs were then incubated with or without 2 mM ATP and 7 different concentrations of pentoxifylline increasing by a factor of 10 ranging from 1.00 nM to 1.00 mM. The incubation solutions also included radioactive labeled [^3H]-cGMP or [^3H]-cAMP (Perkin Elmer, Boston, MA, USA), at a concentration of respectively 2 µM and 20 µM. [^3H]-cAMP was used to assess ABCC4-inhibition and [^3H]-cGMP for ABCC5-inhibition. The assays were performed in triplicates at 3 different days: In total 9 parallels were performed to calculate results for each concentration of pentoxifylline at all temperatures. Incubation time of 60 min was chosen to ensure sufficient quality of the samples for each parallel. The transport was stopped by adding ice cold buffer. The IOVs were then filtered through a nitrocellulose membrane (Bio-Rad Laboratories, Feldkirchen Germany), and the membrane was dried. The dried membranes were later added scintillation fluid and radioactivity was measured using a Packard TopCount NXT (Packard, Downers Grove, IL, USA).
as §2

ABCC5 = biological target: T3, ABCC5 (Homo sapiens, UniProt O15440); assay: Inhibition of [3H]-cGMP efflux in erythrocyte inside-out vesicles; format: biochemical; details: for Ki: Cheng-Prusoff
T3 construct: inside-out vesicles (IOV)s where erythrocytes from healthy, human donors were sampled; endogenous in cells; host or cells: inside-out vesicles from erythrocytes of healthy human donors
Method: as §3, §4, §2

[1] = parameters: method as in PMID 26870389; details: review on cardiovascular effects; cited from earlier work

T3 sequence (O15440 whole entry): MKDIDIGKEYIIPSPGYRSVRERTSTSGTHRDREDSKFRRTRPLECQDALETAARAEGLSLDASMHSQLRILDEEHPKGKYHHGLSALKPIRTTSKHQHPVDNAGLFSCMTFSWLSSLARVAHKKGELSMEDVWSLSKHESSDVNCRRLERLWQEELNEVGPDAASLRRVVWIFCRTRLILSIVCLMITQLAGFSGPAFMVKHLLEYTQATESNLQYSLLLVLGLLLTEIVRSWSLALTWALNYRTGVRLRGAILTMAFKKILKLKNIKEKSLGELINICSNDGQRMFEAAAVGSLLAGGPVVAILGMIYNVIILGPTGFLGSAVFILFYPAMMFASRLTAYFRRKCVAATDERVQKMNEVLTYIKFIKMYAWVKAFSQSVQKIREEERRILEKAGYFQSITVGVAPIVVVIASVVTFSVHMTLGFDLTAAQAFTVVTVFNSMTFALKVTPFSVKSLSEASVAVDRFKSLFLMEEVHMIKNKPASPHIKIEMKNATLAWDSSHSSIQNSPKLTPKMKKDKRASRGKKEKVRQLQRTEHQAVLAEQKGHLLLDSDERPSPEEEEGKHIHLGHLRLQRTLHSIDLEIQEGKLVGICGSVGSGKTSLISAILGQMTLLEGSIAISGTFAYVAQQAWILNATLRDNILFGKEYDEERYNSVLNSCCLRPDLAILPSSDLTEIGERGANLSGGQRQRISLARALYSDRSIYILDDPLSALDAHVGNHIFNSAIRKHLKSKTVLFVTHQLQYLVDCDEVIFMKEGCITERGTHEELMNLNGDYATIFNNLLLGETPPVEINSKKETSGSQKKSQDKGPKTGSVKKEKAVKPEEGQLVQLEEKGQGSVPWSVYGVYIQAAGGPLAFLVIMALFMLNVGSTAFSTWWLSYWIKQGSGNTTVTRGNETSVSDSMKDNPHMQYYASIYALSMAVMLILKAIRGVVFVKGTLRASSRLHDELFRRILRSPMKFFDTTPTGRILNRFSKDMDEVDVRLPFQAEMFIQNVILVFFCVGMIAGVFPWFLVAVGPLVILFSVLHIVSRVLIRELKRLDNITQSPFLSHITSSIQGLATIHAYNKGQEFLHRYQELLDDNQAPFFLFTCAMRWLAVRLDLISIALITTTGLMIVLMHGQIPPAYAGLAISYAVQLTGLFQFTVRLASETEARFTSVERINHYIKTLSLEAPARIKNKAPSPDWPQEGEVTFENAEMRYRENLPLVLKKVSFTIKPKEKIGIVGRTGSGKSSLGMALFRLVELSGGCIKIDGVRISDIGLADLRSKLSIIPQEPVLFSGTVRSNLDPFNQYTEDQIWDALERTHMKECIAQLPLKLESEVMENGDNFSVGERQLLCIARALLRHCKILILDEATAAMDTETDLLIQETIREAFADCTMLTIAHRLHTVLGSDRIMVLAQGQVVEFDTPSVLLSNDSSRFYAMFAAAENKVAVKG

CC(=O)CCCCn1c(=O)c2c(ncn2C)n(C)c1=O [pentoxifylline]
IC50 (Recombinant human PDE3; 20 °C): 31000 ± 9470 nM | Ki (Recombinant human PDE3; 20 °C): 1420 ± 434 nM | [PDE3-inhibition]/[PDE5-inhibition] (Recombinant human PDE3; 20 °C): 0.788 | IC50 (Recombinant human PDE3; 24 °C): 29200 ± 4720 nM | Ki (Recombinant human PDE3; 24 °C): 1340 ± 216 nM | [PDE3-inhibition]/[PDE5-inhibition] (Recombinant human PDE3; 24 °C): 1.16 | IC50 (Recombinant human PDE3; 28 °C): 22400 ± 6360 nM | Ki (Recombinant human PDE3; 28 °C): 1020 ± 291 nM | [PDE3-inhibition]/[PDE5-inhibition] (Recombinant human PDE3; 28 °C): 0.920 | [PDE3-inhibition]/[cAMP-efflux inhibition] (Recombinant human PDE3; 28 °C): 11.6 | IC50 (Recombinant human PDE3; 32 °C): 26700 ± 4700 nM | Ki (Recombinant human PDE3; 32 °C): 1220 ± 215 nM | [PDE3-inhibition]/[PDE5-inhibition] (Recombinant human PDE3; 32 °C): 1.72 | [PDE3-inhibition]/[cAMP-efflux inhibition] (Recombinant human PDE3; 32 °C): 13.3 | IC50 (Recombinant human PDE3; 34 °C): 14200 ± 1510 nM | Ki (Recombinant human PDE3; 34 °C): 651 ± 69 nM | [PDE3-inhibition]/[PDE5-inhibition] (Recombinant human PDE3; 34 °C): 1.33 | [PDE3-inhibition]/[cAMP-efflux inhibition] (Recombinant human PDE3; 34 °C): 3.94 | IC50 (Recombinant human PDE3; 37 °C): 15800 ± 4250 nM | Ki (Recombinant human PDE3; 37 °C): 723 ± 195 nM | [PDE3-inhibition]/[PDE5-inhibition] (Recombinant human PDE3; 37 °C): 2.05 | [PDE3-inhibition]/[cAMP-efflux inhibition] (Recombinant human PDE3; 37 °C): 11.9 | IC50 (Recombinant human PDE5; 20 °C): 39400 ± 10900 nM | Ki (Recombinant human PDE5; 20 °C): 10000 ± 2780 nM | [PDE5-inhibition]/[cGMP-efflux inhibition] (Recombinant human PDE5; 20 °C): 102 | IC50 (Recombinant human PDE5; 24 °C): 25200 ± 6570 nM | Ki (Recombinant human PDE5; 24 °C): 6400 ± 1670 nM | [PDE5-inhibition]/[cGMP-efflux inhibition] (Recombinant human PDE5; 24 °C): 50.2 | IC50 (Recombinant human PDE5; 28 °C): 24300 ± 5580 nM | Ki (Recombinant human PDE5; 28 °C): 6170 ± 1420 nM | [PDE5-inhibition]/[cGMP-efflux inhibition] (Recombinant human PDE5; 28 °C): 28.6 | IC50 (Recombinant human PDE5; 32 °C): 15500 ± 753 nM | Ki (Recombinant human PDE5; 32 °C): 3940 ± 191 nM | [PDE5-inhibition]/[cGMP-efflux inhibition] (Recombinant human PDE5; 32 °C): 21.4 | IC50 (Recombinant human PDE5; 34 °C): 10700 ± 1920 nM | Ki (Recombinant human PDE5; 34 °C): 2710 ± 487 nM | [PDE5-inhibition]/[cGMP-efflux inhibition] (Recombinant human PDE5; 34 °C): 12.0 | IC50 (Recombinant human PDE5; 37 °C): 7700 ± 265 nM | Ki (Recombinant human PDE5; 37 °C): 1950 ± 67 nM | [PDE5-inhibition]/[cGMP-efflux inhibition] (Recombinant human PDE5; 37 °C): 14.5 | Ki (ABCC4; 28 °C): 918 ± 465 nM | [cAMP-efflux inhibition]/[cGMP-efflux inhibition] (ABCC4; 28 °C): 2.27 | IC50 (ABCC4; 28 °C): 1930 ± 1110 nM | Ki (ABCC4; 32 °C): 1160 ± 526 nM | [cAMP-efflux inhibition]/[cGMP-efflux inhibition] (ABCC4; 32 °C): 2.78 | IC50 (ABCC4; 32 °C): 2010 ± 819 nM | Ki (ABCC4; 34 °C): 2030 ± 1460 nM | [cAMP-efflux inhibition]/[cGMP-efflux inhibition] (ABCC4; 34 °C): 4.04 | IC50 (ABCC4; 34 °C): 3610 ± 2590 nM | Ki (ABCC4; 37 °C): 805 ± 343 nM | [cAMP-efflux inhibition]/[cGMP-efflux inhibition] (ABCC4; 37 °C): 2.50 | IC50 (ABCC4; 37 °C): 1330 ± 566 nM | Inhibition of cAMP-efflux (ABCC4-activity) (ABCC4; temperatures below 28 °C (24 and 20 °C)): no inhibition | IC50 (ABCC5; 20 °C): 388 ± 70 nM | IC50 (ABCC5; 24 °C): 502 ± 315 nM | Ki (ABCC5; 24 °C): 320 ± 183 nM | IC50 (ABCC5; 28 °C): 851 ± 281 nM | Ki (ABCC5; 28 °C): 481 ± 159 nM | IC50 (ABCC5; 32 °C): 724 ± 206 nM | Ki (ABCC5; 32 °C): 409 ± 116 nM | IC50 (ABCC5; 34 °C): 893 ± 401 nM | Ki (ABCC5; 34 °C): 505 ± 226 nM | IC50 (ABCC5; 37 °C): 531 ± 338 nM | Ki (ABCC5; 37 °C): 300 ± 191 nM | clinical serum concentrations [1]: 1 to 10 µM
